Laboratory results reported in PubChem BioAssay (NCI).
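At the GI50, growth is halved. TGI: total growth inhibition.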

Key:
Assay in all cases: inhibition of tumour cell growth, NCI panel, 384-well format
CAKI-1 renal = test system: CAKI-1 renal
HT29 colon = test system: HT29 colon
K-562 leukemia = test system: K-562 leukemia
UO-31 renal = test system: UO-31 renal
DU-145 prostate = test system: DU-145 prostate
SK-MEL-5 melanoma = test system: SK-MEL-5 melanoma
NCI-H226 lung = test system: NCI-H226 lung
ACHN renal = test system: ACHN renal
M14 melanoma = test system: M14 melanoma
HOP-92 NSCLC = test system: HOP-92 NSCLC
SN12C renal = test system: SN12C renal
EKVX NSCLC = test system: EKVX NSCLC
A498 renal = test system: A498 renal

CCN(CC)CCNC(=O)c1c(C)[nH]c(/C=C2\C(=O)Nc3ccc(F)cc32)c1C
GI50 (CAKI-1 renal): 0.748 µM
TGI (CAKI-1 renal): 2.06 µM
GI50 (HT29 colon): 1.48 µM
TGI (HT29 colon): 2.85 µM
GI50 (K-562 leukemia): 1.35 µM
TGI (K-562 leukemia): 2.66 µM
GI50 (UO-31 renal): 2.17 µM
TGI (UO-31 renal): 6.36 µM
GI50 (DU-145 prostate): 2.54 µM
TGI (DU-145 prostate): 11.9 µM
GI50 (SK-MEL-5 melanoma): 1.24 µM
TGI (SK-MEL-5 melanoma): 2.5 µM
GI50 (NCI-H226 lung): 1.61 µM
TGI (NCI-H226 lung): 4.48 µM
GI50 (ACHN renal): 1.3 µM
TGI (ACHN renal): 3.06 µM
GI50 (M14 melanoma): 0.911 µM
TGI (M14 melanoma): 2.15 µM
GI50 (HOP-92 NSCLC): 1.62 µM
TGI (HOP-92 NSCLC): 4.86 µM
GI50 (SN12C renal): 0.931 µM
TGI (SN12C renal): 10.4 µM
GI50 (EKVX NSCLC): 3.12 µM
TGI (EKVX NSCLC): 9.47 µM
GI50 (A498 renal): 1.54 µM
TGI (A498 renal): 3.14 µM
